The values that follow come from patent publication US11065201B2, “Gel formulations for local drug release” (TECHNICAL UNIVERSITY OF DENMARK, priority 2014, dated 2021).

A short description of data set [1]: Gel formation after injection of sugar ester formulations into PBS buffer. The data set is classed as physicochemical. The settings on record: for injection into PBS and gel-formation: formulated with 35% and 20% propylene carbonate, respectively. How it is done: The gel-forming properties of the synthesized esters containing only small percentages of organic solvents and/or triglycerides were inspected in the following experiments
˜210 mg of the following sugar ester formulations: α,β Lactose octaacetate: α,β Lactose octaisobutyrate 5:1, α,β Lactose octaacetate: α,β Lactose octaisobutyrate 2:1, α,β Lactose octaacetate: α,β Lactose octaisobutyrate 1:1, α,β Lactose octaacetate: α,β Lactose octapropionate 1:1, α,β Lactose octaacetate: α,β Lactose octapropionate 1:5, α,β Lactose octaacetate: α,β Lactose octapropionate 1:3, α,β Lactose octapropionate: α,β Lactose octaisobutyrate 1:1, α,β Lactose octaacetate: α,β Lactose octaisobutyrate 1:5, α,β Lactose octapropionate, α,β Lactose octaisobutyrate: α,β Lactose octaacetate 0.5:0.5:5, α,β Lactose octaisobutyrate: α,β Lactose octaacetate 3:1, Trehalose octaacetate:Trehalose octapropionate 1:1, Trehalose octapropionate, Trehalose octaisobutyrate, Raffinose undecaacetate:Raffinose undecapropionate 1:1, Raffinose undecaisobutyrate, β-maltose octaisobutyrate and α,β-D-glucosamine pentapropionate were mixed with 20 wt % EtOH by heating to ˜37° C., vortexing and ultrasonication. ˜50-80 uL of the resulting formulations were then injected into 2 mL of PBS buffer using 25 G needles.
˜210 mg of the following sugar ester formulations: α,β Lactose octaacetate, α,β lactose octapropionate, α,β Lactose octaacetate: α,β lactose octapropionate 1:1, α,β lactose octaisobutyrate, α,β maltose octapropionate, β maltose octapropionate, α-D-glucosamine pentapropionate, α, β-D-glucosamine pentapropionate, β maltose octapropionate: α-D-glucosamine pentapropionate 1:1 and α-D-glucosamine pentaisobutyrate were mixed with 20 wt % NMP or DMSO by heating to ˜37° C., vortexing and ultrasonication. ˜50-60 uL of the resulting formulations were injected into PBS. With maltose octapropionate, glucosamine pentapropionate and lactose octaacetate alternative wt % of solvents were also tried (i.e. 25-40 wt % of the before mentioned solvents). […] In case of α,β-maltose propionate and α,β-D-glucosamine pentapropionate, injection into PBS and gel-formation are also successful when formulated with 35% and 20% propylene carbonate, respectively (examples shown in FIG. 1). Pure α-D-Glucosamine esters and hydrophilic maltose ester analogues have a tendency to form hard amorphous solids with some crystallinity after injection into PBS—so although ˜20 wt % solvent is possible to inject with difficulty, gels of this type containing ˜25-35 wt % solvent are easier to handle.
˜210 mg of α,β Lactose octaacetate: α,β Lactose octapropionate 1:1 or α,β Lactose octaisobutyrate were mixed with 2, 5 or 10 wt % glycerol trioctanoate, 5% DMSO and EtOH was added to give 20 wt % solvent in total for all formulations. In case of lactose octaisobutyrate, formulations containing 15 wt % glycerol trioctanoate and 5% DMSO, 30 wt % glycerol trioctanoate and 5% NMP/DMSO or 40 wt % glycerol trioctanoate alone were also made. The solutions were mixed by heating to ˜37° C., vortexing and ultrasonication. ˜40-60 uL of the resulting formulations were injected into PBS.

For data set [2] the following is noted: cited from earlier work.
In data set [3] the test system is FaDu Head and Neck xenografts. As to the kind of experiment: Diffusion of Hoechst evaluated by fluorescent imaging of tumor cryo-sections. Type of data set: in vivo, NMRI nude mice. As to the method: Formulations of lactose isobutyrate:X-SAIB (contrast agent): EtOH and DMSO with composition of 1)75:5:15:5, 2) 77, 5:5:12, 5:5 and 2) 80:5:10:5 were prepared along with formulations of lactose acetate:propionate(1:1):X-SAIB(contrast agent): EtOH and DMSO in 75:5:15:5 ratio. All of the gel formulations were prepared with ˜0.7‰ of Hoechst 33342, as model of a DNA binding drug. 25-30 uL of each gel was injected into FaDu Head and Neck xenografts grown on the flank of NMRI nude mice (groups of 4-8 mice were injected with each formulation). Release and gel-stability was monitored for a maximum of 5-6 days. 2-3 mice were sacrificed at predetermined times (day 1, middle of the experimental period and at the end of the experimental period). The tumors were excised and snap-frozen with liquid N2 to preserve the tumor tissue for histological examination. Stability of the radiopaque gel-depots was evaluated by micro-CT imaging (see FIG. 18). Only the lactose isobutyrate gel was subjected to X-rays, to evaluate the effect of radiation on gel-stability. […] Diffusion of Hoechst was evaluated by fluorescent imaging of the tumor cryo-sections (see FIG. 19).

Where [4] appears, read: 20 wt % NMP or DMSO (25-40 wt % also tried for some), ~50-60 uL injected into PBS.
[5] abbreviates: 20 wt % EtOH, ~50-80 uL injected into 2 mL PBS buffer, 25 G needles.

Regarding `CC(=O)OC[C@H]1O[C@@H](O[C@H]2[C@H](OC(C)=O)[C@@H](OC(C)=O)C(OC(C)=O)O[C@@H]2COC(C)=O)[C@H](OC(C)=O)[C@@H](OC(C)=O)[C@H]1OC(C)=O` (stereo partly drawn) [α,β Lactose octaacetate, α,β-Lactose Octaacetate], in data set [1] (20 wt % DMSO or 20 wt % propylene carbonate), the injectability entry is on record as “this occurs with difficulty due to high viscosity”. The “gel formation upon injection” value in data set [1] (setting [4]) is “formation of an amorphous solid (gel) was seen”.

Regarding `CCC(=O)OCC1O[C@H](O[C@@H]2C(COC(=O)CC)O[C@@H](OC(=O)CC)C(OC(=O)CC)[C@H]2OC(=O)CC)C(OC(=O)CC)[C@@H](OC(=O)CC)[C@@H]1OC(=O)CC` (stereo partly drawn) [β maltose octapropionate, β-Maltose Octapropionate], the “gel formation upon injection” value in data set [1] (setting [4]) is “formation of an amorphous solid (gel) was seen”.

Turning to `CCC(=O)NC1[C@@H](OC(=O)CC)OC(COC(=O)CC)[C@@H](OC(=O)CC)[C@@H]1OC(=O)CC` (stereo partly drawn) [α-D-glucosamine pentapropionate, α-D Glucosamine Pentapropionate], in data set [1] (setting [4]), the “gel formation upon injection” value is on record as “formation of an amorphous solid (gel) was seen”. By Log P is commonly meant a log measure of how a compound divides between an organic and an aqueous phase. Turning to `Nc1n[n+]([O-])c2ccccc2[n+]1[O-]` [tirapazamine], the lipophilicity (Log P) in data set [2] is reported as ~−0.06. In the case of `CCC(=O)OCC1O[C@@H](O[C@H]2OC(COC(=O)CC)[C@@H](OC(=O)CC)[C@H](OC(=O)CC)C2OC(=O)CC)C(OC(=O)CC)C(OC(=O)CC)[C@H]1OC(=O)CC` (stereo partly drawn) [Trehalose octapropionate, Trehalose Octapropionate], the “gel formation upon injection” value in data set [1] (setting [5]) is “formed gels upon injection”. Turning to `CC(C)C(=O)OC[C@H]1O[C@@H](O[C@H]2[C@H](OC(=O)C(C)C)[C@@H](OC(=O)C(C)C)C(OC(=O)C(C)C)O[C@@H]2COC(=O)C(C)C)[C@H](OC(=O)C(C)C)[C@@H](OC(=O)C(C)C)[C@H]1OC(=O)C(C)C` (stereo partly drawn) [α,β lactose octaisobutyrate, α,β-Lactose Octaisobutyrate], the “gel formation upon injection” value in data set [1] (2-40 wt % glycerol trioctanoate, with DMSO/NMP/EtOH, ~40-60 uL injected into PBS) is given as “formation of an amorphous solid (gel) was seen”; in data set [1] (setting [4]), “formation of an amorphous solid (gel) was seen”. The “appearance of the injected solid” value in data set [1] (pure triglyceride used as solvent (40 wt % glycerol trioctanoate alone), up to 24 h after injection) was “very soft, transparant and could easily be manipulated in shape”. For `O=C([O-])c1ccccc1-c1c2cc(Br)c(=O)c(Br)c-2oc2c(Br)c([O-])c(Br)cc12.[Na+].[Na+]` [Eosin Y], the “Log P” value in data set [2] was ~6.4. On to `CC(C)C(=O)OCC1O[C@H](OCC2O[C@@H](O[C@]3(COC(=O)C(C)C)O[C@H](COC(=O)C(C)C)[C@@H](OC(=O)C(C)C)[C@H]3OC(=O)C(C)C)C(OC(=O)C(C)C)[C@@H](OC(=O)C(C)C)[C@@H]2OC(=O)C(C)C)C(OC(=O)C(C)C)[C@@H](OC(=O)C(C)C)[C@H]1OC(=O)C(C)C` (stereo partly drawn) [Raffinose undecaisobutyrate, Raffinose Undecaisobutyrate], for which the “gel formation upon injection” value in data set [1] (setting [5]) is reported as “formed gels upon injection”. Take `CCC(=O)NC1C(OC(=O)CC)OC(COC(=O)CC)[C@@H](OC(=O)CC)[C@@H]1OC(=O)CC` (stereo partly drawn) [α,β-D-glucosamine pentapropionate, α,β-D Glucosamine Pentapropionate]: the “gel formation upon injection” value in data set [1] (setting [5]) is reported as “formed gels upon injection”; in data set [1] (setting [4]) it was “formation of an amorphous solid (gel) was seen”. Also, in data set [1], the “injection into PBS and gel-formation” value is “successful”. As to `CC(C)C(=O)OCC1O[C@H](O[C@@H]2C(COC(=O)C(C)C)O[C@@H](OC(=O)C(C)C)C(OC(=O)C(C)C)[C@H]2OC(=O)C(C)C)C(OC(=O)C(C)C)[C@@H](OC(=O)C(C)C)[C@@H]1OC(=O)C(C)C` (stereo partly drawn) [β-maltose octaisobutyrate, β-Maltose Octaisobutyrate], the “gel formation upon injection” value in data set [1] (setting [5]) is recorded as “formed gels upon injection”. Turning to `O=C1OC2(c3ccc(O)cc3Oc3cc(O)ccc32)c2ccccc21` [fluorescein free acid], the “Log P” value in data set [2] was ~1.8. Consider `CCC(=O)OCC1OC(OC(=O)CC)C(OC(=O)CC)[C@@H](OC(=O)CC)[C@@H]1O[C@H]1OC(COC(=O)CC)[C@@H](OC(=O)CC)[C@H](OC(=O)CC)C1OC(=O)CC` (stereo partly drawn) [α,β maltose octapropionate, α,β-Maltose Octapropionate], for which the “gel formation upon injection” value in data set [1] (setting [4]) was “formation of an amorphous solid (gel) was seen”. Besides, the “injection into PBS and gel-formation” value in data set [1] was “successful”. For Trehalose Octaisobutyrate, in data set [1] (setting [5]), the “gel formation upon injection” value is listed as “formed gels upon injection”.

`CCC(=O)OC[C@H]1O[C@@H](O[C@H]2[C@H](OC(=O)CC)[C@@H](OC(=O)CC)C(OC(=O)CC)O[C@@H]2COC(=O)CC)[C@H](OC(=O)CC)[C@@H](OC(=O)CC)[C@H]1OC(=O)CC` (stereo partly drawn) [α,β lactose octapropionate, α,β-Lactose Octapropionate]: in data set [1] (setting [4]), the “gel formation upon injection” value is given as “formation of an amorphous solid (gel) was seen”. As to `CCOc1ccc(-c2nc3ccc(-c4nc5ccc(N6CCN(C)CC6)cc5[nH]4)cc3[nH]2)cc1` [Hoechst 33342], the “release of Hoechst into the tumors” value in data set [3] (from gel depots, ~0.7‰ Hoechst 33342, tumor cryo-sections) is recorded as “confirmed release of Hoechst into the tumors”. Moreover, the “distribution of the fluorophore in the tumor” value in data set [3] (over a period of 6 days) was “distribution of the fluorophore across most of the tumor area”.

`NNC(=O)c1ccncc1` [isoniazide]: in data set [2], the “Log P” value is ~−0.8. Turning to `CC(C)C(=O)NC1[C@@H](OC(=O)C(C)C)OC(COC(=O)C(C)C)[C@@H](OC(=O)C(C)C)[C@@H]1OC(=O)C(C)C` (stereo partly drawn) [α-D-glucosamine pentaisobutyrate, α-D Glucosamine Pentaisobutyrate], the “gel formation upon injection” value in data set [1] (setting [4]) is given as “formation of an amorphous solid (gel) was seen”.
